Here are results for nine compounds from the NIST ThermoML archive (doi:10.1016/j.fluid.2019.05.020).

Numbers after ± are expanded uncertainties.

The conditions of series [1]: for Normal melting temperature: Crystal, DTA.
The nature of series [2]: Molar enthalpy of transition or fusion. The following applies: Crystal; DSC.

With `CCCCCCCCCCCCCCCC(=O)OCC(COC(=O)CCCCCCCCCCCCCCC)OC(=O)CCCCCCCCCCCCCCC` [1,2,3-propanetriyl tri(hexadecanoate)], the Normal melting temperature in series [1] was 66.29 ± 0.65 °C. In addition, the “Molar enthalpy of transition or fusion” value in series [2] worked out at 38.3 ± 2.1 kcal/mol.
For `CCCCCCCCCCCCO` [dodecan-1-ol], in that order: 24.63 ± 0.39 °C and 7.53 ± 2.13 kcal/mol.
For `CCCCCCCCCCCC(=O)O` [dodecanoic acid], in that order: 45.4 ± 0.65 °C and 7.99 ± 0.621 kcal/mol.
For `CCCCCCCCCCCCCCO` [1-tetradecanol], in series [1], the Normal melting temperature is 37.56 ± 0.91 °C. Besides, the “Molar enthalpy of transition or fusion” value in series [2] came out at 10.4 ± 1.24 kcal/mol.
As for `CCCCCCCCCCCCCCCC(=O)O` [hexadecanoic acid], the Normal melting temperature in series [1] stood at 64.02 ± 0.55 °C. Moreover, in series [2], the “Molar enthalpy of transition or fusion” value was 11.7 ± 0.645 kcal/mol.
Turning to `CCCCCCCCCCCCCCCCCC(=O)O` [octadecanoic acid], in series [1], the Normal melting temperature amounted to 70.48 ± 0.49 °C. For the same compound, in series [2], the “Molar enthalpy of transition or fusion” value was determined as 13.4 ± 1.12 kcal/mol.
Consider `CCCCCCCCCCO` [decan-1-ol], for which the Triple point temperature in series [1] (Crystal 2, DSC) stood at 275.64 ± 4.1 K. Moreover, in series [1], the Normal melting temperature turned out to be 6.69 ± 0.55 °C. In addition, in series [2], the “Molar enthalpy of transition or fusion” value was determined as 7.06 ± 0.932 kcal/mol.
With `CCCCCCCCCCCCCC(=O)O` [tetradecanoic acid], the Normal melting temperature in series [1] was found to be 55.90 ± 0.73 °C. Besides, in series [2], the “Molar enthalpy of transition or fusion” value came out at 9.92 ± 1.63 kcal/mol.
Regarding `CCCCCCCCCC(=O)O` [decanoic acid], the Normal melting temperature in series [1] was found to be 32.07 ± 0.49 °C. The “Molar enthalpy of transition or fusion” value in series [2] worked out at 6.25 ± 0.287 kcal/mol.
